Data: patent US7250399B2, “Compounds having growth hormone releasing activity” (The Administrators of the Tulane Educational Fund, priority 1998, dated 2007)
Several values for one entry are separate records, joined by “and”; a condition that tells them apart may be missing. Equal values may be shown once.

How the values were obtained:
[1] = test system: Growth Hormone release; assay: In Vitro Release of Growth Hormone in Rat; assay type: cell-based
Method: (§1) In vitro and in vivo activity of certain compounds were determined in rats and adult beagle dogs (in vivo activity only).

[2] = test system: Growth Hormone release; assay: In Vivo GH Release in Rats (i.v., serum GH by RIA); design: species or system Sprague-Dawley rats; details: i.v., serum 10 min after injection
Method: Immature female Sprague-Dawley rats were obtained from the Charles River Laboratories (Wilmington, Mass.). After arrival they were housed at 25° C. with a 14:10 hour light:dark cycle. Water and Purina rat chow were available ad libitum. Pups were kept with their mothers until 21 days of age.
Twenty-six day old rats, six rats per treatment group, were anesthetized interperitoneally with 50 mg/kg of pentobarbital 20 minutes prior to i.v. treatment with peptide. Normal saline with 0.1% gelatin was the vehicle for intravenous (i.v.) injections of the peptides. The anesthetized rats, weighing 55-65 grams, were injected i.v. with the quantity of grown hormone releasing compounds indicated in Table 3. Injection was made as a 0.1 mL solution into the jugular vein.
All animals were sacrificed by guillotine 10 minutes after final test injection (see Table 3). Trunk blood for the determination of blood GH levels was collected following decapitation. After allowing the blood to clot, it was centrifuged and the serum was separated from the clot. Serum was kept frozen until the day of sampling for radioimmunoassay (RIA) determination of growth hormone levels according to the following procedure, as developed by the National Institute of Arthritis, Diabetes and Digestive and Kidney Diseases (NIADDK).
Reagents are generally added to the RIA analysis tubes at a single sitting, at refrigerator temperature (about 4° C.) in the following sequence: • (a) buffer, • (b) “cold” (i.e., non-radioactive) standard or unknown serum sample to be analyzed, • (c) radio-iodinated growth hormone antigen, and • (d) growth hormone antiserum.
Reagent addition is generally carried out so that there is achieved a final RIA tube dilution of about 1:30,000 (antiserum to total liquid volume; vol:vol).
The mixed reagents are then typically incubated at room temperature (about 25° C.) for about 24 hours prior to addition of a second antibody (e.g., goat or rabbit anti-monkey gamma globulin serum) which binds to and causes precipitation of the complexed growth hormone antiserum. Precipitated contents of the RIA tubes are then analyzed for the number of counts in a specified period of time in a gamma scintillation counter. A standard curve is prepared by plotting number of radioactive counts versus growth hormone (GH) level. GH levels of unknown are then determined by reference to the standard curve.
Serum GH was measured by RIA with reagents provided by the National Hormone and Pituitary Program.
Serum levels in Tables 3 and 4 are recorded in ng/mL in terms of the rat GH standard of 0.61 International Units/mg (IU/mg). Data is recorded as the mean ±standard error of the mean (SEM). Statistical analysis was performed with Student's t-test. In Table 3, the results shown are the average of studies with six rats.

[3] = test system: Growth Hormone release; assay: In Vivo Release of Growth Hormone in Adult Beagle Dogs; design: unit not given here
Method: as §1

[4] = compound at .0001 (dose unit not given)
[5] = compound at .0003 (dose unit not given)
[6] = compound at .001 (dose unit not given)
[7] = compound at .003 (dose unit not given)
[8] = compound at .01 (dose unit not given)
[9] = compound at 1 (dose unit not given)
[10] = compound at 3 (dose unit not given)
[11] = compound at 10 (dose unit not given)
[12] = compound at 30 (dose unit not given)
[13] = compound at .3 (dose unit not given)
[14] = oral dose 4 mg/kg, time 6 hr, 4 mg/kg
[15] = oral dose 4F [sic] (mg/kg; F not explained), time 0 hr
[16] = oral dose 4F [sic] (mg/kg; F not explained), time 2 hr
[17] = oral dose 4F [sic] (mg/kg; F not explained), time 4 hr
[18] = oral dose 4F [sic] (mg/kg; F not explained), time 5 hr
[19] = compound at 100 (dose unit not given)

Molecule | In Vitro Release of Growth Hormone in Rat, GH [1, 4] [ng/mL] | In Vitro Release of Growth Hormone in Rat, GH [1, 5] [ng/mL] | In Vitro Release of Growth Hormone in Rat, GH [1, 6] [ng/mL] | In Vitro Release of Growth Hormone in Rat, GH [1, 7] [ng/mL] | In Vitro Release of Growth Hormone in Rat, GH [1, 8] [ng/mL] | In Vivo Release of Growth Hormone in Rat, GH [2, 9] [ng/mL] | In Vivo Release of Growth Hormone in Rat, GH [2, 10] [ng/mL] | In Vivo Release of Growth Hormone in Rat, GH [2, 11] [ng/mL] | In Vivo Release of Growth Hormone in Rat, GH [2, 12] [ng/mL] | In Vivo Release of Growth Hormone in Adult Beagle Dogs [3, 14] | In Vivo Release of Growth Hormone in Adult Beagle Dogs [3, 15] | In Vivo Release of Growth Hormone in Adult Beagle Dogs [3, 16] | In Vivo Release of Growth Hormone in Adult Beagle Dogs [3, 17] | In Vivo Release of Growth Hormone in Adult Beagle Dogs [3, 18] | In Vivo Release of Growth Hormone in Rat, GH [2, 19] [ng/mL] | In Vivo Release of Growth Hormone in Adult Beagle Dogs ([3]; oral dose 2 mg/kg, time 0.5 hr) | In Vivo Release of Growth Hormone in Adult Beagle Dogs ([3]; oral dose 2 mg/kg, time 1 hr) | In Vivo Release of Growth Hormone in Adult Beagle Dogs ([3]; oral dose 2 mg/kg, time 2 hr) | In Vivo Release of Growth Hormone in Adult Beagle Dogs ([3]; oral dose 2 mg/kg, time 3 hr) | In Vivo Release of Growth Hormone in Adult Beagle Dogs ([3]; oral dose 2 mg/kg, time 4 hr) | other results
CCN(CC)C(=O)C1CCCNC1 (centres unmarked) [N,N-diethylnipecotamide] | 418 | 395 | 489 | 536 | 642 | 928 | 2070 | 2896 | 2186 | 1.9 and 2.1 | 2.7 | 3.7 | 0.9 | 10 | – | – | – | – | – | – | In Vivo Release of Growth Hormone in Rat, GH [2, 13]: 221 ng/mL; In Vivo Release of Growth Hormone in Adult Beagle Dogs ([3]; oral dose 4 mg/kg, time 0 hr, 4 mg/kg): 1.7 and 0.9; In Vivo Release of Growth Hormone in Adult Beagle Dogs ([3]; oral dose 4 mg/kg, time 0.5 hr, 4 mg/kg): 57 and 43; In Vivo Release of Growth Hormone in Adult Beagle Dogs ([3]; oral dose 4 mg/kg, time 1 hr, 4 mg/kg): 13 and 8; In Vivo Release of Growth Hormone in Adult Beagle Dogs ([3]; oral dose 4 mg/kg, time 8 hr, 4 mg/kg): 1.7 and 0.9; In Vivo Release of Growth Hormone in Adult Beagle Dogs ([3]; oral dose 4F [sic] (mg/kg; F not explained), time 8 hr): 3.5
Aib-DTrp-DPro-3-methylpiperidinamide [DPro-m-methylpiperidine] | 434 | 458 | 633 | 837 | 968 | – | 832 | 1557 | 1570 | 11 | 1.4 | 18 | 3.5 | 1.4 | 1762 | 128 | 59 | 29 | 12 | 8.9 | In Vivo Release of Growth Hormone in Adult Beagle Dogs ([3]; oral dose 1 mg/kg, time 0 hr, 1 mg/kg): 2; In Vivo Release of Growth Hormone in Adult Beagle Dogs ([3]; oral dose 1 mg/kg, time 0.5 hr, 1 mg/kg): 53 and 63; In Vivo Release of Growth Hormone in Adult Beagle Dogs ([3]; oral dose 1 mg/kg, time 1 hr, 1 mg/kg): 19 and 32; In Vivo Release of Growth Hormone in Adult Beagle Dogs ([3]; oral dose 1 mg/kg, time 2 hr, 1 mg/kg): 15 and 17; In Vivo Release of Growth Hormone in Adult Beagle Dogs ([3]; oral dose 1 mg/kg, time 3 hr, 1 mg/kg): 9.6 and 13; In Vivo Release of Growth Hormone in Adult Beagle Dogs ([3]; oral dose 1 mg/kg, time 5 hr, 1 mg/kg): 2.2 and 1.5; In Vivo Release of Growth Hormone in Adult Beagle Dogs ([3]; oral dose 1 mg/kg, time 7 hr, 1 mg/kg): 2.2 and 3; In Vivo Release of Growth Hormone in Adult Beagle Dogs ([3]; oral dose 1 mg/kg, time 8 hr, 1 mg/kg): 1; In Vivo Release of Growth Hormone in Adult Beagle Dogs ([3]; oral dose 2 mg/kg, time 6 hr): 3; In Vivo Release of Growth Hormone in Adult Beagle Dogs ([3]; oral dose 2 mg/kg, time 7 hr): 3; In Vivo Release of Growth Hormone in Adult Beagle Dogs ([3]; oral dose 4 mg/kg, time 1 hr): 55; In Vivo Release of Growth Hormone in Adult Beagle Dogs ([3]; oral dose 4 mg/kg, time 2 hr, 4 mg/kg): 50 and 54; In Vivo Release of Growth Hormone in Adult Beagle Dogs ([3]; oral dose 4 mg/kg, time 3 hr, 4 mg/kg): 52 and 53; In Vivo Release of Growth Hormone in Adult Beagle Dogs ([3]; oral dose 4 mg/kg, time 4 hr, 4 mg/kg): 20 and 34; In Vivo Release of Growth Hormone in Adult Beagle Dogs ([3]; oral dose 4 mg/kg, time 7 hr, 4 mg/kg): 11; In Vivo Release of Growth Hormone in Adult Beagle Dogs ([3]; oral dose 4F [sic] (mg/kg; F not explained), time 0.5 hr): 72; In Vivo Release of Growth Hormone in Adult Beagle Dogs ([3]; oral dose 4F [sic] (mg/kg; F not explained), time 1 hr): 84; In Vivo Release of Growth Hormone in Adult Beagle Dogs ([3]; oral dose 4F [sic] (mg/kg; F not explained), time 3 hr): 4.7
Aib-DTrp-DPro-diisobutylamide | – | – | – | – | 1322 | 642 | 1524 | 1837 | 2307 | – | – | – | – | – | 2913 | 54 | 30 | 22 | 15 | 7 | In Vitro Release of Growth Hormone in Rat, GH [1, 9]: 1124 ng/mL; In Vitro Release of Growth Hormone in Rat, GH ([1]; compound at .03 (dose unit not given)): 1529 ng/mL; In Vitro Release of Growth Hormone in Rat, GH ([1]; compound at .1 (dose unit not given)): 1427 ng/mL; In Vitro Release of Growth Hormone in Rat, GH [1, 13]: 1155 ng/mL; In Vivo Release of Growth Hormone in Adult Beagle Dogs ([3]; oral dose 1 mg/kg, time 0.5 hr, listed as DPo-diisobutylamide, 1 mg/kg): 85 and 128 and 89; In Vivo Release of Growth Hormone in Adult Beagle Dogs ([3]; oral dose 1 mg/kg, time 1 hr, listed as DPo-diisobutylamide, 1 mg/kg): 30 and 50 and 59; In Vivo Release of Growth Hormone in Adult Beagle Dogs ([3]; oral dose 1 mg/kg, time 2 hr, listed as DPo-diisobutylamide, 1 mg/kg): 16 and 24 and 30; In Vivo Release of Growth Hormone in Adult Beagle Dogs ([3]; oral dose 1 mg/kg, time 4 hr, listed as DPo-diisobutylamide, 1 mg/kg): 6 and 5.6 and 7; In Vivo Release of Growth Hormone in Adult Beagle Dogs ([3]; oral dose 1 mg/kg, time 7 hr, listed as DPo-diisobutylamide, 1 mg/kg): 2.5 and 2.2 and 3.7; In Vivo Release of Growth Hormone in Adult Beagle Dogs ([3]; oral dose 2 mg/kg, time 5 hr): 4.6; In Vivo Release of Growth Hormone in Adult Beagle Dogs ([3]; oral dose 2 mg/kg, time 6 hr): 4.8; In Vivo Release of Growth Hormone in Adult Beagle Dogs ([3]; oral dose 2 mg/kg, time 8 hr): 1.8; In Vivo Release of Growth Hormone in Adult Beagle Dogs ([3]; oral dose 4 mg/kg, time 0 hr, listed as DPo-diisobutylamide, 4 mg/kg): 1.4 and 0.8; In Vivo Release of Growth Hormone in Adult Beagle Dogs ([3]; oral dose 4 mg/kg, time 3 hr, listed as DPo-diisobutylamide, 4 mg/kg): 15 and 22; In Vivo Release of Growth Hormone in Adult Beagle Dogs ([3]; oral dose 4 mg/kg, time 7 hr, listed as DPo-diisobutylamide, 4 mg/kg): 6.9
